Assay results published in US20240390464A1, “Treatment of Adults With Overweight or Obesity With or Without Weight-Related Comorbidities” (Carmot Therapeutics Inc., priority 2023, published 2024).
“Also recorded” adds a separate entry of the source. Marks after values point to notes of the source that are not given here. Numbered stars: 1 amine (or outer) side, 2 acyl side, 3 side chain; on linkers, the order of the positions; unused ones are H or OH. Square brackets hold non-standard residues; d marks the D form. Side chains are listed from the residue outwards. Peptide text beside a SMILES is read from it. * marks the point of attachment. Isobutyryl(2-(3-CN-5-F-Ph)) = CC(C)(C(=O)*)c1cc(F)cc(C#N)c1; C20 diacid = O=C(O)CCCCCCCCCCCCCCCCCCC(=O)*; γGlu = O=C(O)[C@H](CCC(=O)[*:2])N[*:1]; AEEA = NCCOCCOCC(=O)O; Aib = CC(C)(N)C(=O)O; βAla = NCCC(=O)O

Experiment: Phase 1 MAD Cohorts 6-8: safety and tolerability (TEAEs)
Format: in vivo, human
Details: for Abdominal Distention / Constipation / Constipation Grade 1 / Constipation Grade 2 / Constipation Grade 3 / Diarrhea / Diarrhea Grade 1 / Diarrhea Grade 2 / Diarrhea Grade 3 / Drug-related TEAEs / Dyspepsia / Eructation / Fatal TEAEs / GI TEAEs (Total) / Gastroesophageal Reflux Disease / Nausea / Nausea Grade 1 / Nausea Grade 3 / Serious TEAEs / Subjects discontinued due to TEAE / Subjects with at least 1 TEAE / TEAE Severity: Grade 1 / TEAE Severity: Grade 2 / TEAE Severity: Grade 3 / Vomiting / Vomiting Grade 1 / Vomiting Grade 2 / Vomiting Grade 3 / Nausea Grade 2: N = 6
From the text: The primary objective of this study is to determine the safety and tolerability of CT-388 in otherwise healthy overweight and obese adult participants when administered once weekly over 4 consecutive weeks with titrated dosing.
Safety and tolerability will be assessed by monitoring adverse events (AE) including local injection-site reactions, measuring vital signs and ECGs, and performing clinical laboratory blood and urine analyses.
• Cohort 6: One weekly dose titrated across 4 consecutive weeks with CT-388 doses of . . . • 5.0 mg at Day 1 • 5.0 mg at Day 8 • 5.0 mg at Day 15 • 7.5 mg at Day 22 • . . . or matched placebo administered subcutaneously in the abdomen • Cohort 7: One weekly dose titrated across 4 consecutive weeks with CT-388 doses of . . . • 5.0 mg at Day 1 • 5.0 mg at Day 8 • 8.0 mg at Day 15 • 12.0 mg at Day 22 • . . . or matched placebo administered subcutaneously in the abdomen • Cohort 8: One weekly dose titrated across 4 consecutive weeks with CT-388 doses of . . . • 5.0 mg at Day 1 • 8.0 mg at Day 8 • 12.0 mg at Day 15 • 12.0 mg at Day 22 • . . . or matched placebo administered subcutaneously in the abdomen (the third dose in Cohort 8 can be lowered to 8.0 mg based on tolerability data from Cohort 7) • Cohort 9: One weekly dose titrated across 4 consecutive weeks with CT-388 doses of . . . • 8.0 mg at Day 1 • 8.0 mg at Day 8 • 12.0 mg at Day 15 • 16.0 mg at Day 22 • . . . or matched placebo administered subcutaneously in the abdomen • Cohort 10: the following two dosing options are proposed in Table 3 below:
A Phase 1, randomized, placebo-controlled, double-blind study was conducted where single ascending doses (SAD; n=40; 0.5-7.5 mg) and multiple ascending doses (MAD; n=24; 5-12 mg via titration in 3 cohorts) were administered as described in Example 1 to overweight/obese adults.
The 24 patients in the MAD arm were divided into three cohorts (Cohorts 6, 7, and 8) as shown in Table 5 below (EOT: end of treatment).
Briefly, participants were randomized 3:1 (6 to CT-388, 2 to placebo, n=8 per cohort). CT-388 was administered once weekly at a dose of 5 mg at baseline in all cohorts and up-titrated up to 12 mg in Cohorts 7 & 8. Oral Glucose Tolerance Test (OGTT) with 75 g glucose solution was performed at baseline (Day −1) and on Day 23. Blood was collected at 15 min prior to OGTT, at OGTT start, and in 30-minute intervals until 120 minutes. Fasting glucose, insulin, C-peptide, and HOMA-IR were measured/calculated at baseline and on Day 23.

CC[C@H](C)[C@H](NC(=O)[C@H](CC(C)C)NC(=O)[C@H](Cc1c[nH]c2ccccc12)NC(=O)[C@H](CCC(N)=O)NC(=O)[C@@H](NC(=O)[C@H](Cc1ccccc1)NC(=O)[C@H](C)NC(=O)[C@H](CCCCNC(=O)COCCOCCNC(=O)COCCOCCNC(=O)CC[C@H](NC(=O)CCCCCCCCCCCCCCCCCCC(=O)O)C(=O)O)NC(=O)[C@H](CCC(N)=O)NC(=O)[C@H](C)NC(=O)[C@@H](NC(=O)[C@H](CCCCN)NC(=O)[C@H](CC(=O)O)NC(=O)[C@H](CC(C)C)NC(=O)C(C)(C)NC(=O)[C@@H](NC(=O)[C@H](CO)NC(=O)[C@H](Cc1ccc(O)cc1)NC(=O)[C@H](CC(=O)O)NC(=O)[C@H](CO)NC(=O)[C@@H](NC(=O)[C@H](Cc1ccccc1)NC(=O)[C@@H](NC(=O)CNC(=O)[C@H](CCC(=O)O)NC(=O)CCNC(=O)C(C)(C)c1cc(F)cc(C#N)c1)[C@@H](C)O)[C@@H](C)O)[C@@H](C)CC)[C@@H](C)CC)C(C)C)C(=O)N[C@@H](C)C(=O)NCC(=O)NCC(=O)N1CCC[C@H]1C(=O)N[C@@H](CO)C(=O)N[C@@H](CO)C(=O)NCC(=O)N[C@@H](C)C(=O)N1CCC[C@H]1C(=O)N1CCC[C@H]1C(=O)N1CCC[C@H]1C(=O)N[C@@H](CO)C(N)=O [CT-388] ({Isobutyryl(2-(3-CN-5-F-Ph))-βAla}-EGTFTSDYSI[Aib]LDKIAQK([AEEA-AEEA-γGlu-C20 diacid])AFVQWLIAGGPSSGAPPPS-NH2)
Abdominal Distention (Cohort 6, 5/5/5/7.5 mg SC QW): 3 n (%) | Constipation (Cohort 6, 5/5/5/7.5 mg SC QW): 3 n (%) | Constipation Grade 1 (Cohort 6, 5/5/5/7.5 mg SC QW): 3 n (%) | Constipation Grade 2 (Cohort 6, 5/5/5/7.5 mg SC QW): 0 n (%) | Constipation Grade 3 (Cohort 6, 5/5/5/7.5 mg SC QW): 0 n (%) | Diarrhea (Cohort 6, 5/5/5/7.5 mg SC QW): 2 n (%) | Diarrhea Grade 1 (Cohort 6, 5/5/5/7.5 mg SC QW): 2 n (%) | Diarrhea Grade 2 (Cohort 6, 5/5/5/7.5 mg SC QW): 0 n (%) | Diarrhea Grade 3 (Cohort 6, 5/5/5/7.5 mg SC QW): 0 n (%) | Drug-related TEAEs (Cohort 6, 5/5/5/7.5 mg SC QW): 33 # Events | Dyspepsia (Cohort 6, 5/5/5/7.5 mg SC QW): 1 n (%) | Eructation (Cohort 6, 5/5/5/7.5 mg SC QW): 0 n (%) | Fatal TEAEs (Cohort 6, 5/5/5/7.5 mg SC QW): 0 # Events | GI TEAEs (Total) (Cohort 6, 5/5/5/7.5 mg SC QW): 6 n (%) | Gastroesophageal Reflux Disease (Cohort 6, 5/5/5/7.5 mg SC QW): 0 n (%) | Nausea (Cohort 6, 5/5/5/7.5 mg SC QW): 6 n (%) | Nausea Grade 1 (Cohort 6, 5/5/5/7.5 mg SC QW): 4 n (%) | Nausea Grade 3 (Cohort 6, 5/5/5/7.5 mg SC QW): 0 n (%) | Serious TEAEs (Cohort 6, 5/5/5/7.5 mg SC QW): 0 # Events | Subjects discontinued due to TEAE (Cohort 6, 5/5/5/7.5 mg SC QW): 0 n (%) | Subjects with at least 1 TEAE (Cohort 6, 5/5/5/7.5 mg SC QW): 6 (100) n (%) | TEAE Severity: Grade 1 (Cohort 6, 5/5/5/7.5 mg SC QW): 6 (100) n (%) | TEAE Severity: Grade 2 (Cohort 6, 5/5/5/7.5 mg SC QW): 6 (100) n (%) | TEAE Severity: Grade 3 (Cohort 6, 5/5/5/7.5 mg SC QW): 0 n (%) | Vomiting (Cohort 6, 5/5/5/7.5 mg SC QW): 5 n (%) | Vomiting Grade 1 (Cohort 6, 5/5/5/7.5 mg SC QW): 2 n (%) | Vomiting Grade 2 (Cohort 6, 5/5/5/7.5 mg SC QW): 3 n (%) | Vomiting Grade 3 (Cohort 6, 5/5/5/7.5 mg SC QW): 0 n (%) | Nausea Grade 2 (Cohort 6, 5/5/5/7.5 mg SC QW, same subject experienced both mild and moderate events): 4 n (%) | Abdominal Distention (Cohort 7, 5/5/8/12 mg SC QW): 0 n (%) | Constipation (Cohort 7, 5/5/8/12 mg SC QW): 0 n (%) | Constipation Grade 1 (Cohort 7, 5/5/8/12 mg SC QW): 0 n (%) | Constipation Grade 2 (Cohort 7, 5/5/8/12 mg SC QW): 0 n (%) | Constipation Grade 3 (Cohort 7, 5/5/8/12 mg SC QW): 0 n (%) | Diarrhea (Cohort 7, 5/5/8/12 mg SC QW): 2 (33.3) n (%) | Diarrhea Grade 1 (Cohort 7, 5/5/8/12 mg SC QW): 2 (33.3) n (%) | Diarrhea Grade 2 (Cohort 7, 5/5/8/12 mg SC QW): 0 n (%) | Diarrhea Grade 3 (Cohort 7, 5/5/8/12 mg SC QW): 0 n (%) | Drug-related TEAEs (Cohort 7, 5/5/8/12 mg SC QW): 18 # Events | Dyspepsia (Cohort 7, 5/5/8/12 mg SC QW): 0 n (%) | Eructation (Cohort 7, 5/5/8/12 mg SC QW): 2 (33.3) n (%) | Fatal TEAEs (Cohort 7, 5/5/8/12 mg SC QW): 0 # Events | GI TEAEs (Total) (Cohort 7, 5/5/8/12 mg SC QW): 4 (66.7) n (%) | Gastroesophageal Reflux Disease (Cohort 7, 5/5/8/12 mg SC QW): 0 n (%) | Nausea (Cohort 7, 5/5/8/12 mg SC QW): 1 (16.7) n (%) | Nausea Grade 1 (Cohort 7, 5/5/8/12 mg SC QW): 1 (16.7) n (%) | Nausea Grade 2 (Cohort 7, 5/5/8/12 mg SC QW): 0 n (%) | Nausea Grade 3 (Cohort 7, 5/5/8/12 mg SC QW): 0 n (%) | Serious TEAEs (Cohort 7, 5/5/8/12 mg SC QW): 0 # Events | Subjects discontinued due to TEAE (Cohort 7, 5/5/8/12 mg SC QW): 0 n (%) | Subjects with at least 1 TEAE (Cohort 7, 5/5/8/12 mg SC QW): 6 n (%) | TEAE Severity: Grade 1 (Cohort 7, 5/5/8/12 mg SC QW): 6 n (%) | TEAE Severity: Grade 2 (Cohort 7, 5/5/8/12 mg SC QW): 1 n (%) | TEAE Severity: Grade 3 (Cohort 7, 5/5/8/12 mg SC QW): 0 n (%) | Vomiting (Cohort 7, 5/5/8/12 mg SC QW): 2 (33.3) n (%) | Vomiting Grade 1 (Cohort 7, 5/5/8/12 mg SC QW): 2 (33.3) n (%) | Vomiting Grade 2 (Cohort 7, 5/5/8/12 mg SC QW): 0 n (%) | Vomiting Grade 3 (Cohort 7, 5/5/8/12 mg SC QW): 0 n (%) | Abdominal Distention (Cohort 8, 5/8/12/12 mg SC QW): 0 n (%) | Constipation (Cohort 8, 5/8/12/12 mg SC QW): 1 (16.7) n (%) | Constipation Grade 1 (Cohort 8, 5/8/12/12 mg SC QW): 1 (16.7) n (%) | Constipation Grade 2 (Cohort 8, 5/8/12/12 mg SC QW): 0 n (%) | Constipation Grade 3 (Cohort 8, 5/8/12/12 mg SC QW): 0 n (%) | Diarrhea (Cohort 8, 5/8/12/12 mg SC QW): 3 (50.0) n (%) | Diarrhea Grade 1 (Cohort 8, 5/8/12/12 mg SC QW): 3 (50.0) n (%) | Diarrhea Grade 2 (Cohort 8, 5/8/12/12 mg SC QW): 0 n (%) | Diarrhea Grade 3 (Cohort 8, 5/8/12/12 mg SC QW): 0 n (%) | Drug-related TEAEs (Cohort 8, 5/8/12/12 mg SC QW): 25 # Events | Dyspepsia (Cohort 8, 5/8/12/12 mg SC QW): 0 n (%) | Eructation (Cohort 8, 5/8/12/12 mg SC QW): 1 (16.7) n (%) | Fatal TEAEs (Cohort 8, 5/8/12/12 mg SC QW): 0 # Events | GI TEAEs (Total) (Cohort 8, 5/8/12/12 mg SC QW): 5 (83.3) n (%) | Gastroesophageal Reflux Disease (Cohort 8, 5/8/12/12 mg SC QW): 2 (33.3) n (%) | Nausea (Cohort 8, 5/8/12/12 mg SC QW): 3 (50.0) n (%) | Nausea Grade 1 (Cohort 8, 5/8/12/12 mg SC QW): 2 (33.3) n (%) | Nausea Grade 2 (Cohort 8, 5/8/12/12 mg SC QW): 1 (16.7) n (%) | Nausea Grade 3 (Cohort 8, 5/8/12/12 mg SC QW): 0 n (%) | Serious TEAEs (Cohort 8, 5/8/12/12 mg SC QW): 0 # Events | Subjects discontinued due to TEAE (Cohort 8, 5/8/12/12 mg SC QW): 0 n (%) | Subjects with at least 1 TEAE (Cohort 8, 5/8/12/12 mg SC QW): 6 n (%) | TEAE Severity: Grade 1 (Cohort 8, 5/8/12/12 mg SC QW): 6 n (%) | TEAE Severity: Grade 2 (Cohort 8, 5/8/12/12 mg SC QW): 3 n (%) | TEAE Severity: Grade 3 (Cohort 8, 5/8/12/12 mg SC QW): 0 n (%) | Vomiting (Cohort 8, 5/8/12/12 mg SC QW): 2 (33.3) n (%) | Vomiting Grade 1 (Cohort 8, 5/8/12/12 mg SC QW): 2 (33.3) n (%) | Vomiting Grade 2 (Cohort 8, 5/8/12/12 mg SC QW): 1 (16.7) n (%) | Vomiting Grade 3 (Cohort 8, 5/8/12/12 mg SC QW): 0 n (%) | tolerability (MAD cohorts, 5 mg up-titrated to 12 mg SC QW over 4 weeks): generally well tolerated; also recorded: generally well-tolerated; also recorded: favorable tolerability profile
